Values after ≈ are worked out from the molar mass of the structure shown. Read-outs that look alike come from different tables or passages of the source.
Legend:
in vitro [1] = conditions: human, Caco-2, pH 7.4
[2] = system: C. albicans (ATCC 90028) and C. neoformans (H99, ATCC 208821); experiment: Broth microdilution MIC assay, fungi; format: cell-based
[3] = Mammalian cytotoxicity assay (resazurin), HEK293; conditions: human, HEK293 cells
[4] = system: ESKAPE pathogens S. aureus (ATCC 43300), E. coli (ATCC 25922), K. pneumoniae (ATCC 700603), A. baumannii (ATCC 19606), P. aeruginosa (ATCC 27853); experiment: Broth microdilution MIC assay, ESKAPE pathogens; format: cell-based
[5] = Mammalian cytotoxicity assay (resazurin), HepG2; conditions: human, HepG2 cells
[6] = system: C. difficile (630, ATCC BAA-1382); experiment: Broth microdilution MIC assay, C. difficile; format: cell-based, Clostridium difficile; conditions: 630 ATCC BAA-1382, median MIC; for MIC: Clostridioides difficile, ATCCBAA1382, read-out: antibacterial MIC C. difficile
in vitro [7] = conditions: human
[8] = system: L. donovani MHOM/IN/80/DD8 (ATCC50212); experiment: L. donovani DD8 intracellular (THP-1) amastigote assay; format: cell-based; conditions: Leishmania donovani
in vitro [9] = conditions: human; remark: listed apart in the source
[10] = Broth microdilution MIC assay, ESKAPE pathogens; format: cell-based; conditions: S. aureus, E. coli, K. pneumoniae, A. baumannii, P. aeruginosa; read-out: antibacterial MIC ESKAPE
[11] = Mammalian cytotoxicity, liver HepG2 and kidney HEK293 cell lines stated together; conditions: human
[12] = system: E. histolytica (HM1:IMSS); experiment: ATP-bioluminescence cell growth and survival assay, E. histolytica trophozoites; format: cell-based; conditions: Entamoeba histolytica
[13] = Kinetic solubility determination by LC-UV; conditions: room temperature, 1% DMSO
M. tuberculosis (H37Rv) = experiment: M. tuberculosis H37Rv resazurin reduction microplate MIC assay, hypoxic conditions (0.1% oxygen); format: cell-based, Mycobacterium tuberculosis; conditions: H37Rv, hypoxia (0.1% oxygen)
M. tuberculosis = conditions: cited from earlier work
[14] = read-out: antiparasitic IC50 L. donovani
[15] = read-out: antiparasitic pIC50 ± SE L. donovani (converted)
[16] = PBS, pH 7.4, Solubility µM (PBS), PBS pH 7.4, 24 h
[17] = water, Solubility µM (H2O), 24 h

Compound	antifungal MIC [2] [µg/mL]	CC50 at 24 h [3] [µM]	antibacterial MIC ESKAPE [4] [µg/mL]	CC50 at 24 h [5] [µM]	antibacterial MIC C. difficile [6] [µg/mL]	MIC [6] [µg/mL]	IC50 [8, 14] [µM]	IC50 [8, 15] [µM]	MIC [10] [µg/mL]	solubility at 24 h [13, 16] [µM]	solubility at 24 h [13, 17] [µM]	other results
O=[N+]([O-])c1cn2c(n1)OC[C@@H](OCc1ccc(OC(F)(F)F)cc1)C2 [pretomanid 6, pretomanid, reference compound]	> 32	> 100	> 32	> 100								Papp A→B at 2 h, 2 µM (in vitro [1]): 29 ×10⁻⁶ cm/s; Papp B→A at 2 h, 2 µM (in vitro [1]): 22 ×10⁻⁶ cm/s; solubility (physchem): 11.3 ± 3.07 µM (≈ 4.06 µg/mL); solubility (physchem; pH 7.4): 10.6 ± 1.76 µM (≈ 3.81 µg/mL)
O=c1[nH]c(-c2ccccc2)cn2cc([N+](=O)[O-])nc12 [24a, 2-Nitro-6-phenylimidazo[1,2-a]pyrazin-8(7H)-one]	>32		>32		>64	> 64	> 80	> 79.4	> 32			MIC ([2]; Candida albicans, read-out: antifungal MIC): > 32 µg/mL; CC50 (in vitro [7]): > 100 µM; CC50 (in vitro [9]): > 100 µM
O=c1c2nc([N+](=O)[O-])cn2ccn1C1CCCCC1 [17t, 7-Cyclohexyl-2-nitroimidazo[1,2-a]pyrazin-8(7H)-one]		112	>32	123	>64	> 64	> 80	> 79.4	> 32	< 10	< 10	CC50 at 24 h ([11]; HepG2 and HEK293 cells): 98 to 123 µM; IC50 ([12]; read-out: antiparasitic IC50 E. histolytica): > 50 µM; IC50 ([12]; read-out: antiparasitic pIC50 ± SE E. histolytica (converted)): > 50.1 µM
O=c1c2nc([N+](=O)[O-])cn2ccn1Cc1ccccc1 [17b, 7-Benzyl-2-nitroimidazo[1,2-a]pyrazin-8(7H)-one]			> 32				> 80	> 79.4	> 32	< 5	< 5	CC50 at 24 h [11]: 98 to 123 µM; CC50 at 24 h (in vitro [7]): 105 µM; antibacterial MIC M. tuberculosis hypoxia (M. tuberculosis (H37Rv)): 4.0 to 8.0 µg/mL
FC(F)(F)Oc1ccc(CO[C@@H]2COc3nccn3C2)cc1 [compound 9, S-des-nitro-PA-824]												MIC M. tuberculosis aerobic growth (M. tuberculosis; aerobic growth): > 160 µM; MIC M. tuberculosis anaerobic growth (M. tuberculosis; anaerobic growth): > 500 µM

Reference: article PMC6311682, “Design, Synthesis, and Biological Evaluation of 2-Nitroimidazopyrazin-one/-es with Antitubercular and Antiparasitic Activity” (Journal of Medicinal Chemistry, 2018)
